Columns and labels:
Assay in all cases: relative viability (nuclei count vs DMSO), 5 days (fraction); higher = more cells survive
NCI-H2342 = test system: NCI-H2342
Method in brief: (§1)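 Each reported value is a median over duplicate plates. It expresses relative viability: treated-well nuclei count divided by vehicle-well nuclei count. Lung cancer cell lines in 1536-well plates were dosed by pin tool a day after seeding, alone with one drug or with a fixed anchor-drug dose plus five library-drug doses (not always all listed) in √10 steps, and nuclei were counted after 5 days.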

NCI-H1395 = test system: NCI-H1395
Method in brief: as §1

HARA = test system: HARA
Method in brief: as §1

NCI-H1437 = test system: NCI-H1437
Method in brief: as §1

NCI-H2009 = test system: NCI-H2009
Method in brief: as §1

LOU-NH91 = test system: LOU-NH91
Method in brief: as §1

SK-LU-1 = test system: SK-LU-1
Method in brief: as §1

NCI-H2170 = test system: NCI-H2170
Method in brief: as §1

BEN = test system: BEN
Method in brief: as §1

HCC-827 = test system: HCC-827
Method in brief: as §1

NCI-H661 = test system: NCI-H661
Method in brief: as §1

NCI-H1355 = test system: NCI-H1355
Method in brief: as §1

NCI-H2405 = test system: NCI-H2405
Method in brief: as §1

NCI-H1734 = test system: NCI-H1734
Method in brief: as §1

NCI-H2087 = test system: NCI-H2087
Method in brief: as §1

LC-2-ad = test system: LC-2-ad
Method in brief: as §1

NCI-H596 = test system: NCI-H596
Method in brief: as §1

SK-MES-1 = test system: SK-MES-1
Method in brief: as §1

NCI-H2228 = test system: NCI-H2228
Method in brief: as §1

EKVX = test system: EKVX
Method in brief: as §1

NCI-H647 = test system: NCI-H647
Method in brief: as §1

NCI-H1792 = test system: NCI-H1792
Method in brief: as §1

In the case of `Oc1nc(-c2ccc(C(F)(F)F)cc2)nc2c1CSCC2` [XAV939] + CCNC(=O)c1noc(-c2cc(C(C)C)c(O)cc2O)c1-c1ccc(CN2CCOCC2)cc1 [Luminespib] (partner 0.01 µM), the relative viability (NCI-H2342; first compound 0.08 µM) was 0.645, the relative viability (NCI-H2342; first compound 0.253 µM) was 0.601 and the relative viability (NCI-H2342; first compound 0.8 µM) was 0.546. For the same molecule, the relative viability (NCI-H2342; first compound 2.53 µM) was 0.402, the relative viability (NCI-H1395; first compound 0.08 µM) was 0.614 and the relative viability (NCI-H1395; first compound 0.253 µM) was 0.725. For the same molecule, the relative viability (NCI-H1395; first compound 0.8 µM) was 0.721, the relative viability (NCI-H1395; first compound 2.53 µM) was 0.662 and the relative viability (HARA; first compound 0.08 µM) was 1.29. The relative viability (HARA; first compound 0.253 µM) was 0.877, the relative viability (HARA; first compound 0.8 µM) was 0.865 and the relative viability (HARA; first compound 2.53 µM) was 0.675. For the same molecule, the relative viability (NCI-H1437; first compound 0.08 µM) was 1.2, the relative viability (NCI-H1437; first compound 0.253 µM) was 1.09 and the relative viability (NCI-H1437; first compound 0.8 µM) was 1.14. For the same molecule, the relative viability (NCI-H1437; first compound 2.53 µM) was 0.911, the relative viability (NCI-H2009; first compound 0.08 µM) was 1.09 and the relative viability (NCI-H2009; first compound 0.253 µM) was 0.883. It also gave a relative viability (NCI-H2009; first compound 0.8 µM) of 1, a relative viability (NCI-H2009; first compound 2.53 µM) of 0.94 and a relative viability (LOU-NH91; first compound 0.08 µM) of 0.322. The relative viability (LOU-NH91; first compound 0.253 µM) was 0.337, the relative viability (LOU-NH91; first compound 0.8 µM) was 0.432 and the relative viability (LOU-NH91; first compound 2.53 µM) was 0.295. The relative viability (SK-LU-1; first compound 0.08 µM) was 0.201, the relative viability (SK-LU-1; first compound 0.253 µM) was 0.193 and the relative viability (SK-LU-1; first compound 0.8 µM) was 0.207. It also gave a relative viability (SK-LU-1; first compound 2.53 µM) of 0.246, a relative viability (NCI-H2170; first compound 0.08 µM) of 0.764 and a relative viability (NCI-H2170; first compound 0.253 µM) of 0.754. It also gave a relative viability (NCI-H2170; first compound 0.8 µM) of 0.704, a relative viability (NCI-H2170; first compound 2.53 µM) of 0.529 and a relative viability (BEN; first compound 0.08 µM) of 0.237. The relative viability (BEN; first compound 0.253 µM) was 0.211, the relative viability (BEN; first compound 0.8 µM) was 0.334 and the relative viability (BEN; first compound 2.53 µM) was 0.262. The relative viability (HCC-827; first compound 0.08 µM) was 0.743, the relative viability (HCC-827; first compound 0.253 µM) was 0.739 and the relative viability (HCC-827; first compound 0.8 µM) was 0.587. The relative viability (HCC-827; first compound 2.53 µM) was 0.396, the relative viability (NCI-H661; first compound 0.08 µM) was 0.894 and the relative viability (NCI-H661; first compound 0.253 µM) was 0.892. For the same molecule, the relative viability (NCI-H661; first compound 0.8 µM) was 0.913, the relative viability (NCI-H661; first compound 2.53 µM) was 0.933 and the relative viability (NCI-H1355; first compound 0.08 µM) was 0.814. For the same molecule, the relative viability (NCI-H1355; first compound 0.253 µM) was 0.787, the relative viability (NCI-H1355; first compound 0.8 µM) was 0.632 and the relative viability (NCI-H1355; first compound 2.53 µM) was 0.47. It also gave a relative viability (NCI-H2405; first compound 0.08 µM) of 0.657, a relative viability (NCI-H2405; first compound 0.253 µM) of 0.673 and a relative viability (NCI-H2405; first compound 0.8 µM) of 0.599. For the same molecule, the relative viability (NCI-H2405; first compound 2.53 µM) was 0.588, the relative viability (NCI-H1734; first compound 0.08 µM) was 0.223 and the relative viability (NCI-H1734; first compound 0.253 µM) was 0.216. For the same molecule, the relative viability (NCI-H1734; first compound 0.8 µM) was 0.185, the relative viability (NCI-H1734; first compound 2.53 µM) was 0.162 and the relative viability (NCI-H2087; first compound 0.08 µM) was 0.165. For the same molecule, the relative viability (NCI-H2087; first compound 0.253 µM) was 0.128, the relative viability (NCI-H2087; first compound 0.8 µM) was 0.152 and the relative viability (NCI-H2087; first compound 2.53 µM) was 0.142. The relative viability (LC-2-ad; first compound 0.08 µM) was 1.2, the relative viability (LC-2-ad; first compound 0.253 µM) was 0.938 and the relative viability (LC-2-ad; first compound 0.8 µM) was 0.973. The relative viability (LC-2-ad; first compound 2.53 µM) was 0.853, the relative viability (NCI-H596; first compound 0.08 µM) was 1.06 and the relative viability (NCI-H596; first compound 0.253 µM) was 0.881. The relative viability (NCI-H596; first compound 0.8 µM) was 1.13, the relative viability (NCI-H596; first compound 2.53 µM) was 0.873 and the relative viability (SK-MES-1; first compound 0.08 µM) was 0.915. For the same molecule, the relative viability (SK-MES-1; first compound 0.253 µM) was 0.726, the relative viability (SK-MES-1; first compound 0.8 µM) was 0.654 and the relative viability (SK-MES-1; first compound 2.53 µM) was 0.48. It also gave a relative viability (NCI-H2228; first compound 0.08 µM) of 0.156, a relative viability (NCI-H2228; first compound 0.253 µM) of 0.158 and a relative viability (NCI-H2228; first compound 0.8 µM) of 0.152. The relative viability (NCI-H2228; first compound 2.53 µM) was 0.134, the relative viability (EKVX; first compound 0.08 µM) was 0.947 and the relative viability (EKVX; first compound 0.253 µM) was 0.786. For the same molecule, the relative viability (EKVX; first compound 0.8 µM) was 0.818, the relative viability (EKVX; first compound 2.53 µM) was 0.7 and the relative viability (NCI-H647; first compound 0.08 µM) was 0.252. It also gave a relative viability (NCI-H647; first compound 0.253 µM) of 0.173, a relative viability (NCI-H647; first compound 0.8 µM) of 0.156 and a relative viability (NCI-H647; first compound 2.53 µM) of 0.143. For the same molecule, the relative viability (NCI-H1792; first compound 0.08 µM) was 0.419, the relative viability (NCI-H1792; first compound 0.253 µM) was 0.391 and the relative viability (NCI-H1792; first compound 0.8 µM) was 0.466. The relative viability (NCI-H1792; first compound 2.53 µM) was 0.464.
